# Measured values: PubChem BioAssay AID248 (DTP/NCI, 2004)
# Values joined by “and” are separate entries in the source; they are usually repeats but may differ in a detail not shown here. Equal values may be shown once. Inconclusive results and toxic doses are left out.
# Tested on: L1210 leukemia ip in BDF1 mice, survival T/C
# Test: NCI In Vivo Anticancer Drug Screen. Data for tumor model L1210 Leukemia (intraperitoneal) in B6D2F1 (BDF1) mice
# Conditions: higher = longer survival
# How it was run: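 Transplanted-tumor mice were given test agent; controls received vehicle only. Survival readings from the two groups were divided (treated over control).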
# [1] = endpoint: mean survival time, dose: 25.0 mg/kg/injection, schedule: Q04DX003 (ip), vehicle: saline with Tween-80
# [2] = endpoint: mean survival time, dose: 50.0 mg/kg/injection, schedule: Q04DX003 (ip), vehicle: saline with Tween-80
structure (smiles),measurement,setting,value
Cc1cccc(C)c1N=C=S,T/C,[1],100 % of control
same,T/C,[2],96 % of control
same,T/C,"endpoint: mean survival time, dose: 100.0 mg/kg/injection, schedule: Q04DX003 (ip), vehicle: saline with Tween-80",98 % of control
C[n+]1ccc(Nc2ccc(NC(=O)c3ccc(Nc4cc[n+](C)c5ccc(N)cc45)cc3)cc2)cc1,T/C,"endpoint: mean survival time, dose: 0.5 mg/kg/injection, schedule: Q01DX009 (ip), vehicle: water",118 % of control
same,T/C,"endpoint: mean survival time, dose: 0.5 mg/kg/injection, schedule: Q01DX009 (sc), vehicle: water",151 % of control
same,T/C,"endpoint: mean survival time, dose: 1.0 mg/kg/injection, schedule: Q01DX009 (ip), vehicle: Klucel (hydroxypropylcellulose) (HPC)",112 % of control
same,T/C,"endpoint: mean survival time, dose: 1.0 mg/kg/injection, schedule: Q01DX009 (sc), vehicle: Klucel (hydroxypropylcellulose) (HPC)",159 % of control
same,T/C,"endpoint: mean survival time, dose: 1.0 mg/kg/injection, schedule: Q01DX009 (sc), vehicle: water",110 % of control and 113 % of control
same,T/C,"endpoint: mean survival time, dose: 2.0 mg/kg/injection, schedule: Q01DX009 (ip), vehicle: Klucel (hydroxypropylcellulose) (HPC)",107 % of control
same,T/C,"endpoint: mean survival time, dose: 2.0 mg/kg/injection, schedule: Q01DX009 (ip), vehicle: water",185 % of control and 204 % of control and 235 % of control
same,T/C,"endpoint: mean survival time, dose: 2.0 mg/kg/injection, schedule: Q01DX009 (sc), vehicle: water",175 % of control
same,T/C,"endpoint: mean survival time, dose: 4.0 mg/kg/injection, schedule: Q01DX009 (ip), vehicle: Klucel (hydroxypropylcellulose) (HPC)",118 % of control
same,T/C,"endpoint: mean survival time, dose: 4.0 mg/kg/injection, schedule: Q01DX009 (ip), vehicle: water",234 % of control and 267 % of control and 272 % of control
same,T/C,"endpoint: mean survival time, dose: 4.0 mg/kg/injection, schedule: Q01DX009 (sc), vehicle: Klucel (hydroxypropylcellulose) (HPC)",200 % of control
same,T/C,"endpoint: mean survival time, dose: 4.0 mg/kg/injection, schedule: Q01DX009 (sc), vehicle: water",205 % of control and 224 % of control
same,T/C,"endpoint: mean survival time, dose: 8.0 mg/kg/injection, schedule: Q01DX009 (ip), vehicle: Klucel (hydroxypropylcellulose) (HPC)",215 % of control
same,T/C,"endpoint: mean survival time, dose: 8.0 mg/kg/injection, schedule: Q01DX009 (ip), vehicle: water",175 % of control and 211 % of control and 252 % of control
same,T/C,"endpoint: mean survival time, dose: 8.0 mg/kg/injection, schedule: Q01DX009 (sc), vehicle: water",190 % of control and 222 % of control
same,T/C,"endpoint: mean survival time, dose: 10.0 mg/kg/injection, schedule: Q01DX009 (oral), vehicle: Klucel (hydroxypropylcellulose) (HPC)",104 % of control
same,T/C,"endpoint: mean survival time, dose: 12.5 mg/kg/injection, schedule: Q04DX003 (ip), vehicle: saline with Tween-80",247 % of control
same,T/C,"endpoint: mean survival time, dose: 12.5 mg/kg/injection, schedule: Q04DX003 (ip), vehicle: saline",257 % of control
same,T/C,"endpoint: mean survival time, dose: 16.0 mg/kg/injection, schedule: Q01DX009 (sc), vehicle: Klucel (hydroxypropylcellulose) (HPC)",176 % of control
same,T/C,"endpoint: mean survival time, dose: 16.0 mg/kg/injection, schedule: Q01DX009 (sc), vehicle: water",155 % of control and 171 % of control
same,T/C,"endpoint: mean survival time, dose: 20.0 mg/kg/injection, schedule: Q01DX009 (oral), vehicle: Klucel (hydroxypropylcellulose) (HPC)",105 % of control
same,T/C,[1],269 % of control
same,T/C,"endpoint: mean survival time, dose: 40.0 mg/kg/injection, schedule: Q01DX009 (oral), vehicle: Klucel (hydroxypropylcellulose) (HPC)",100 % of control
same,T/C,[2],248 % of control
same,T/C,"endpoint: mean survival time, dose: 50.0 mg/kg/injection, schedule: Q04DX003 (ip), vehicle: saline",253 % of control
same,T/C,"endpoint: mean survival time, dose: 75.0 mg/kg/injection, schedule: Q04DX003 (ip), vehicle: saline",227 % of control
same,T/C,"endpoint: mean survival time, dose: 80.0 mg/kg/injection, schedule: Q01DX009 (oral), vehicle: Klucel (hydroxypropylcellulose) (HPC)",105 % of control
same,T/C,"endpoint: mean survival time, dose: 160.0 mg/kg/injection, schedule: Q01DX009 (oral), vehicle: Klucel (hydroxypropylcellulose) (HPC)",101 % of control
same,T/C,"endpoint: median survival time, dose: 0.25 mg/kg/injection, schedule: Q03HX008 (ip), vehicle: water",103 % of control and 121 % of control
same,T/C,"endpoint: median survival time, dose: 0.25 mg/kg/injection, schedule: Q03HX016 (ip), vehicle: water",107 % of control and 116 % of control
same,T/C,"endpoint: median survival time, dose: 0.25 mg/kg/injection, schedule: Q03HX024 (ip), vehicle: water",112 % of control and 116 % of control
same,T/C,"endpoint: median survival time, dose: 0.5 mg/kg/injection, schedule: Q01DX005 (ip), vehicle: water",102 % of control and 124 % of control
same,T/C,"endpoint: median survival time, dose: 0.5 mg/kg/injection, schedule: Q01DX009 (ip), vehicle: water",112 % of control and 122 % of control
same,T/C,"endpoint: median survival time, dose: 0.5 mg/kg/injection, schedule: Q01DX009 (sc), vehicle: water",96 % of control and 100 % of control
same,T/C,"endpoint: median survival time, dose: 0.5 mg/kg/injection, schedule: Q03HX008 (ip), vehicle: water",112 % of control
same,T/C,"endpoint: median survival time, dose: 0.5 mg/kg/injection, schedule: Q03HX016 (ip), vehicle: water",119 % of control
same,T/C,"endpoint: median survival time, dose: 0.5 mg/kg/injection, schedule: Q03HX024 (ip), vehicle: water",150 % of control
same,T/C,"endpoint: median survival time, dose: 1.0 mg/kg/injection, schedule: Q01DX005 (ip), vehicle: water",117 % of control
same,T/C,"endpoint: median survival time, dose: 1.0 mg/kg/injection, schedule: Q01DX009 (sc), vehicle: water",101 % of control and 111 % of control
same,T/C,"endpoint: median survival time, dose: 1.0 mg/kg/injection, schedule: Q03HX016 (ip), vehicle: water",169 % of control
same,T/C,"endpoint: median survival time, dose: 1.0 mg/kg/injection, schedule: Q03HX024 (ip), vehicle: water",169 % of control and 186 % of control
same,T/C,"endpoint: median survival time, dose: 2.0 mg/kg/injection, schedule: Q01DX001 (sc), vehicle: water",97 % of control and 98 % of control
same,T/C,"endpoint: median survival time, dose: 2.0 mg/kg/injection, schedule: Q01DX005 (ip), vehicle: water",179 % of control
same,T/C,"endpoint: median survival time, dose: 2.0 mg/kg/injection, schedule: Q01DX009 (ip), vehicle: water",177 % of control and 224 % of control
same,T/C,"endpoint: median survival time, dose: 2.0 mg/kg/injection, schedule: Q01DX009 (sc), vehicle: water",150 % of control
same,T/C,"endpoint: median survival time, dose: 2.0 mg/kg/injection, schedule: Q03HX008 (ip), vehicle: water",169 % of control
same,T/C,"endpoint: median survival time, dose: 2.0 mg/kg/injection, schedule: Q03HX016 (ip), vehicle: water",158 % of control and 213 % of control
same,T/C,"endpoint: median survival time, dose: 2.0 mg/kg/injection, schedule: Q03HX024 (ip), vehicle: water",197 % of control
same,T/C,"endpoint: median survival time, dose: 2.0 mg/kg/injection, schedule: Q04DX003 (ip), vehicle: water",114 % of control and 121 % of control
same,T/C,"endpoint: median survival time, dose: 2.0 mg/kg/injection, schedule: Q08DX002 (ip), vehicle: water",110 % of control and 113 % of control
same,T/C,"endpoint: median survival time, dose: 4.0 mg/kg/injection, schedule: Q01DX001 (ip), vehicle: water",110 % of control
same,T/C,"endpoint: median survival time, dose: 4.0 mg/kg/injection, schedule: Q01DX001 (sc), vehicle: water",95 % of control and 105 % of control
same,T/C,"endpoint: median survival time, dose: 4.0 mg/kg/injection, schedule: Q01DX005 (ip), vehicle: water",195 % of control
same,T/C,"endpoint: median survival time, dose: 4.0 mg/kg/injection, schedule: Q01DX009 (ip), vehicle: water",231 % of control
same,T/C,"endpoint: median survival time, dose: 4.0 mg/kg/injection, schedule: Q01DX009 (sc), vehicle: water",183 % of control and 222 % of control
same,T/C,"endpoint: median survival time, dose: 4.0 mg/kg/injection, schedule: Q03HX008 (ip), vehicle: water",202 % of control
same,T/C,"endpoint: median survival time, dose: 4.0 mg/kg/injection, schedule: Q03HX016 (ip), vehicle: water",229 % of control and 261 % of control
same,T/C,"endpoint: median survival time, dose: 4.0 mg/kg/injection, schedule: Q03HX024 (ip), vehicle: water",201 % of control and 247 % of control
same,T/C,"endpoint: median survival time, dose: 4.0 mg/kg/injection, schedule: Q04DX003 (ip), vehicle: water",124 % of control
same,T/C,"endpoint: median survival time, dose: 4.0 mg/kg/injection, schedule: Q08DX002 (ip), vehicle: water",116 % of control and 124 % of control
same,T/C,"endpoint: median survival time, dose: 8.0 mg/kg/injection, schedule: Q01DX001 (ip), vehicle: water",121 % of control
same,T/C,"endpoint: median survival time, dose: 8.0 mg/kg/injection, schedule: Q01DX001 (sc), vehicle: water",105 % of control and 113 % of control
same,T/C,"endpoint: median survival time, dose: 8.0 mg/kg/injection, schedule: Q01DX005 (ip), vehicle: water",211 % of control
same,T/C,"endpoint: median survival time, dose: 8.0 mg/kg/injection, schedule: Q01DX009 (sc), vehicle: water",178 % of control
same,T/C,"endpoint: median survival time, dose: 8.0 mg/kg/injection, schedule: Q04DX003 (ip), vehicle: water",164 % of control
same,T/C,"endpoint: median survival time, dose: 8.0 mg/kg/injection, schedule: Q08DX002 (ip), vehicle: water",153 % of control
same,T/C,"endpoint: median survival time, dose: 16.0 mg/kg/injection, schedule: Q01DX001 (sc), vehicle: water",105 % of control
same,T/C,"endpoint: median survival time, dose: 16.0 mg/kg/injection, schedule: Q01DX009 (sc), vehicle: water",95 % of control
same,T/C,"endpoint: median survival time, dose: 32.0 mg/kg/injection, schedule: Q01DX001 (sc), vehicle: water",165 % of control
same,T/C,"endpoint: median survival time, dose: 64.0 mg/kg/injection, schedule: Q01DX001 (sc), vehicle: water",192 % of control and 267 % of control
Cc1ccc(NN)cc1Cl,T/C,"endpoint: mean survival time, dose: 100.0 mg/kg/injection, schedule: Q04DX003 (ip), vehicle: Klucel (hydroxypropylcellulose) (HPC)",105 % of control
same,T/C,"endpoint: mean survival time, dose: 200.0 mg/kg/injection, schedule: Q04DX003 (ip), vehicle: Klucel (hydroxypropylcellulose) (HPC)",91 % of control
